# Patent US6426355B1, “Heterocyclic carboxamide-containing thiourea inhibitors of herpes viruses containing phenylenediamine group” (American Home Products, priority 1998, dated 2002)
# What was measured:
# HSV-1 = assay: HSV Antiviral (ELISA) assay; type: cell-based; conditions: HSV-1 in Vero cells
# Outline: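 Replication measured as glycoprotein D signal in fixed cells: anti-gD antibody plus β-galactosidase-linked secondary, fluorogenic substrate read at 365/450 nm. Vero cells (2% FBS DMEM) received compound 30 min pre-infection, HSV-1 MOI 0.006, ~24 h incubation; IC50 relative to no-compound fluorescence.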
# VZV strain Ellen = assay: VZV Antiviral (ELISA) assay; type: cell-based; conditions: VZV strain Ellen in HFF cells; for % inhibition 10 ug/ml VZV: at 10 ug/ml
# Outline: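 HFF cells infected with VZV Ellen at low multiplicity (<0.1) overnight were seeded at 3.5×10^4 cells/well in DMEM with 2% FBS plus compound and incubated three days at 37° C., 5% CO2. Viral replication was read by ELISA against glycoprotein II with β-galactosidase fluorogenic readout (ex 365/em 450 nm); IC50 relative to no-compound fluorescence.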
# [1] = system: HCMV recombinant mutant virus (RV145); assay: HCMV microtiter plate assay (beta-glucuronidase reporter); type: cell-based, Human Cytomegalovirus; conditions: HCMV in human foreskin fibroblasts
# Outline: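 Replication was read out as virus-encoded β-glucuronidase activity, measured with a chromogenic or fluorogenic glucuronide substrate in cell lysates at 96 h post-infection. Infection of human foreskin fibroblasts with RV145 took place with compound present. IC50 was derived from a range of inhibitor amounts.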
Compound,IC50 (ug/ml) HSV (HSV-1) [µg/mL],IC50 (ug/ml) VZV (VZV strain Ellen) [µg/mL],% inhibition 10 ug/ml VZV (VZV strain Ellen) [%],IC50 (ug/ml) HCMV [1] [µg/mL]
COc1cc(OC)c(NC(=S)Nc2ccc(NC(=O)c3c[nH]nn3)cc2)cc1Cl [Example 174],50,>10,8,6
COc1cc(OC)c(NC(=S)Nc2ccc(NC(=O)c3sccc3Br)cc2)cc1Cl [Example 175],2,>10,24,>10
O=C(Nc1ccc(NC(=S)Nc2ccc(Cl)c(C(F)(F)F)c2)cc1)c1csnn1 [Example 200],>10,>15,55,0.02
COc1c(Cl)cc(NC(=S)Nc2ccc(NC(=O)c3csnn3)cc2)cc1Cl [Example 201],>10,8,78,0.023
COc1cc(OC)c(NC(=S)Nc2ccc(NC(=O)c3ccccn3)cc2)cc1Cl [Example 224],3.5,>10,30,0.8
COc1cc(OC)c(NC(=S)Nc2ccc(NC(=O)c3ccnc4ccccc34)cc2)cc1Cl [Example 225],1,>10,30,>10
Cc1ccc(NC(=S)Nc2ccc(NC(=O)c3csnn3)cc2)cc1Cl [Example 230],>10,>10,,0.015
Cc1ccc(NC(=S)Nc2ccc(NC(=O)c3ccco3)cc2)cc1Cl [Example 233],>10,>10,30,0.09
Cc1ccc(NC(=S)Nc2ccc(NC(=O)c3ccccn3)cc2)cc1Cl [Example 236],>10,>10,40,0.7
CN(c1ccc(NC(=S)Nc2ccc(NC(=O)c3csnn3)cc2)cc1Cl)C1CCCCC1 [Example 237],>10,>10,17,0.02
CN(c1ccc(NC(=S)Nc2ccc(NC(=O)c3ccco3)cc2)cc1Cl)C1CCCCC1 [Example 246],>10,4,37,0.05
CN(c1ccc(NC(=S)Nc2ccc(NC(=O)c3ccccn3)cc2)cc1Cl)C1CCCCC1 [Example 249],>10,>10,59,0.4
COc1cc(OC)c(NC(=S)Nc2ccc(NC(=O)c3snnc3-c3ccccc3)cc2)cc1Cl [Example 264],>10,>10,28,>10
COc1cc(OC)c(NC(=S)Nc2ccc(NC(=O)c3nnsc3C)cc2)cc1Cl [Example 279],>10,>10,,>10
COc1cc(OC)c(NC(=S)Nc2ccc(NC(=O)c3nnsc3-c3ccoc3)cc2)cc1Cl [Example 280],>10,>10,,>10
COc1cc(OC)c(NC(=S)Nc2ccc(NC(=O)c3nnsc3-c3ccccc3)cc2)cc1Cl [Example 281],>10,>10,31,>10
COc1cc(OC)c(NC(=S)Nc2ccc(NC(=O)c3snnc3-c3ccoc3)cc2)cc1Cl [Example 288],>10,>10,30,4
